Drawing on PubChem BioAssay AID220 (DTP/NCI, 2004), this text covers T/C for 14 compounds.

Values joined by “and” are separate entries in the source; they are usually repeats but may differ in a detail not shown here. Equal values may be shown once. Inconclusive results are not listed.

The assay has as its system CD8F1 mice, subcutaneous mammary adenocarcinoma, T/C%. Description: NCI In Vivo Anticancer Drug Screen. Data for tumor model Mammary Adenocarcinoma CD8F1 (subcutaneous) in CD8F1. As to conditions: higher = larger tumour. In outline:
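Antitumor activity is assessed in transplantable-tumor mice by comparing the treated group with a vehicle-treated control group. Survival or tumor size serves as the measure, reported as T divided by C.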

[1] abbreviates: endpoint: median tumor weight (est.), dose: 100.0 mg/kg/injection, schedule: Q07DX005 (ip), vehicle: Klucel (hydroxypropylcellulose) (HPC).
Setting [2] is: endpoint: median tumor weight change, dose: 125.0 mg/kg/injection, schedule: Q01DX001 (ip), vehicle: saline with Tween-80.
The mark [3] stands for this setting: endpoint: mean tumor weight, dose: 75.0 mg/kg/injection, schedule: Q07DX005 (ip), vehicle: saline.
Where [4] appears, read: endpoint: mean tumor weight, dose: 150.0 mg/kg/injection, schedule: Q07DX005 (ip), vehicle: saline.

Consider `O=C1CN(CCN2CC(=O)N(CN3CCOCC3)C(=O)C2)CC(=O)N1CN1CCOCC1`, for which the T/C (endpoint: median tumor weight change, dose: 15.62 mg/kg/injection, schedule: Q01DX001 (ip), vehicle: water) was 53 % of control; the T/C (endpoint: median tumor weight change, dose: 31.25 mg/kg/injection, schedule: Q01DX001 (ip), vehicle: water) is 64 % of control; the T/C (endpoint: median tumor weight change, dose: 62.5 mg/kg/injection, schedule: Q01DX001 (ip), vehicle: water) is 96 % of control; the T/C (endpoint: median tumor weight change, dose: 125.0 mg/kg/injection, schedule: Q01DX001 (ip), vehicle: water) is 40 % of control.

Take `CNC(=O)OCc1c(COC(=O)NC)c(C)n(-c2ccc(OC)cc2)c1C`: the T/C is, setting by setting: (endpoint: median tumor weight (est.), dose: 6.25 mg/kg/injection, schedule: Q07DX005 (ip), vehicle: Klucel (hydroxypropylcellulose) (HPC)) 113 % of control; (endpoint: median tumor weight (est.), dose: 12.5 mg/kg/injection, schedule: Q07DX005 (ip), vehicle: Klucel (hydroxypropylcellulose) (HPC)) 90 % of control; (endpoint: median tumor weight (est.), dose: 25.0 mg/kg/injection, schedule: Q07DX005 (ip), vehicle: Klucel (hydroxypropylcellulose) (HPC)) 152 % of control; (endpoint: median tumor weight (est.), dose: 50.0 mg/kg/injection, schedule: Q07DX005 (ip), vehicle: Klucel (hydroxypropylcellulose) (HPC)) 23 % of control; under setting [1], 24 % of control; (endpoint: median tumor weight change, dose: 50.0 mg/kg/injection, schedule: Q01DX001 (ip), vehicle: Klucel (hydroxypropylcellulose) (HPC)) 109 % of control. The T/C reads like this: (endpoint: median tumor weight change, dose: 200.0 mg/kg/injection, schedule: Q01DX001 (ip), vehicle: Klucel (hydroxypropylcellulose) (HPC)) 79 % of control; (endpoint: median tumor weight change, dose: 400.0 mg/kg/injection, schedule: Q01DX001 (ip), vehicle: Klucel (hydroxypropylcellulose) (HPC)) 52 % of control.

Take `O=C(N/N=C\c1cc(Br)cc(Br)c1O)N/N=C/c1cc(Br)cc(Br)c1O`: the T/C reads like this: (endpoint: median tumor weight (est.), dose: 50.0 mg/kg/injection, schedule: Q07DX005 (ip), vehicle: saline with Tween-80) 60 % of control; (endpoint: median tumor weight (est.), dose: 200.0 mg/kg/injection, schedule: Q07DX005 (ip), vehicle: saline with Tween-80) 100 % of control; (endpoint: median tumor weight (est.), dose: 400.0 mg/kg/injection, schedule: Q07DX005 (ip), vehicle: saline with Tween-80) 391 % of control.

Take `COC(=O)C(N)Cc1ccc(O)c(O)c1` (stereo unspecified): the T/C (endpoint: median tumor weight (est.), dose: 100.0 mg/kg/injection, schedule: Q07DX005 (ip), vehicle: saline) is 195 % of control; the T/C (endpoint: median tumor weight (est.), dose: 400.0 mg/kg/injection, schedule: Q07DX005 (ip), vehicle: saline) is 112 % of control; the T/C (endpoint: median tumor weight (est.), dose: 800.0 mg/kg/injection, schedule: Q07DX005 (ip), vehicle: saline) is 108 % of control.

Take `COc1cc2c(cc1O)N=C[C@@H]1CCC(O)N1C2=O` (mixture of isomers): the T/C was 103 % of control (endpoint: median tumor weight (est.), dose: 2.0 mg/kg/injection, schedule: Q07DX005 (ip), vehicle: saline); 79 % of control (endpoint: median tumor weight (est.), dose: 4.0 mg/kg/injection, schedule: Q07DX005 (ip), vehicle: saline); 160 % of control (endpoint: median tumor weight (est.), dose: 8.0 mg/kg/injection, schedule: Q07DX005 (ip), vehicle: saline).

`O=S(=O)(N=N/C=C1\C=CC=CN1O)c1cccs1`: the T/C runs as follows: under setting [2], 76 % of control; (endpoint: median tumor weight change, dose: 250.0 mg/kg/injection, schedule: Q01DX001 (ip), vehicle: saline with Tween-80) 88 % of control.

Regarding `O=c1n(CC2CO2)c(=O)n(CC2CO2)c(=O)n1CC1CO1` (stereo unspecified), the T/C (endpoint: median tumor weight (est.), dose: 12.5 mg/kg/injection, schedule: Q07DX004 (ip), vehicle: saline with Tween-80) is 64 % of control; the T/C (endpoint: median tumor weight (est.), dose: 12.5 mg/kg/injection, schedule: Q07DX005 (ip), vehicle: saline with Tween-80) is 17 % of control; the T/C (endpoint: median tumor weight (est.), dose: 12.5 mg/kg/injection, schedule: Q07DX005 (ip), vehicle: suspension in saline) is 69 % of control and 55 % of control; the T/C (endpoint: median tumor weight (est.), dose: 25.0 mg/kg/injection, schedule: Q07DX004 (ip), vehicle: saline with Tween-80) was 79 % of control; the T/C (endpoint: median tumor weight (est.), dose: 25.0 mg/kg/injection, schedule: Q07DX005 (ip), vehicle: saline with Tween-80) is 4 % of control; the T/C (endpoint: median tumor weight (est.), dose: 50.0 mg/kg/injection, schedule: Q07DX004 (ip), vehicle: saline with Tween-80) is 42 % of control. For the same compound, the T/C (endpoint: median tumor weight (est.), dose: 50.0 mg/kg/injection, schedule: Q07DX005 (ip), vehicle: suspension in saline) is 12 % of control and 35 % of control.

Take `C[C@]12C=CC(=O)C=C1CC[C@@H]1[C@@H]2C(=O)C[C@@]2(C)[C@H]1CC[C@]2(O)C(=O)CO`: the T/C was 173 % of control (endpoint: mean tumor weight, dose: 25.0 mg/kg/injection, schedule: Q01DX009 (ip), vehicle: saline); 37 % of control (endpoint: mean tumor weight, dose: 37.5 mg/kg/injection, schedule: Q07DX006 (ip), vehicle: saline); 93 % of control under setting [3]; 42 % of control (endpoint: mean tumor weight, dose: 75.0 mg/kg/injection, schedule: Q07DX006 (ip), vehicle: saline); 10 % of control (endpoint: mean tumor weight, dose: 75.0 mg/kg/injection, schedule: Q07DX007 (ip), vehicle: saline); 61 % of control (endpoint: mean tumor weight, dose: 100.0 mg/kg/injection, schedule: Q01DX009 (ip), vehicle: saline). Moreover, the T/C is 95 % of control under setting [4]; 23 % of control (endpoint: mean tumor weight, dose: 150.0 mg/kg/injection, schedule: Q07DX006 (ip), vehicle: saline); 9 % of control (endpoint: mean tumor weight, dose: 200.0 mg/kg/injection, schedule: Q07DX005 (ip), vehicle: saline); 6 % of control (endpoint: mean tumor weight, dose: 300.0 mg/kg/injection, schedule: Q07DX006 (ip), vehicle: saline); 21 % of control (endpoint: mean tumor weight, dose: 400.0 mg/kg/injection, schedule: Q07DX005 (ip), vehicle: saline); 1 % of control (endpoint: mean tumor weight, dose: 800.0 mg/kg/injection, schedule: Q07DX005 (ip), vehicle: saline). Further, the T/C reads like this: under setting [1], 33 % of control; (endpoint: median tumor weight (est.), dose: 200.0 mg/kg/injection, schedule: Q07DX005 (ip), vehicle: Klucel (hydroxypropylcellulose) (HPC)) 26 % of control; (endpoint: median tumor weight (est.), dose: 400.0 mg/kg/injection, schedule: Q07DX005 (ip), vehicle: Klucel (hydroxypropylcellulose) (HPC)) 15 % of control; (endpoint: median tumor weight (est.), dose: 800.0 mg/kg/injection, schedule: Q07DX005 (ip), vehicle: Klucel (hydroxypropylcellulose) (HPC)) 13 % of control.

In the case of `C1CNCOC1`, the T/C was 74 % of control (endpoint: median tumor weight change, dose: 50.0 mg/kg/injection, schedule: Q01DX001 (ip), vehicle: saline); 48 % of control (endpoint: median tumor weight change, dose: 62.5 mg/kg/injection, schedule: Q01DX001 (ip), vehicle: saline); 82 % of control (endpoint: median tumor weight change, dose: 100.0 mg/kg/injection, schedule: Q01DX001 (ip), vehicle: saline); 90 % of control (endpoint: median tumor weight change, dose: 200.0 mg/kg/injection, schedule: Q01DX001 (ip), vehicle: saline); 96 % of control (endpoint: median tumor weight change, dose: 250.0 mg/kg/injection, schedule: Q01DX001 (ip), vehicle: saline).

`CCOC(=O)C(CC(C)C)NC(=O)C(Cc1ccc(N(CCCl)CCCl)cc1)NC(C)=O` (stereo unspecified): the T/C by setting is: (endpoint: median tumor weight (est.), dose: 8.0 mg/kg/injection, schedule: Q07DX005 (ip), vehicle: saline with Tween-80) 112 % of control; (endpoint: median tumor weight (est.), dose: 32.0 mg/kg/injection, schedule: Q07DX005 (ip), vehicle: saline with Tween-80) 49 % of control and 58 % of control; (endpoint: median tumor weight (est.), dose: 64.0 mg/kg/injection, schedule: Q07DX005 (ip), vehicle: saline with Tween-80) 9 % of control.

As for `CCN(CC)Cc1cc2[nH]c3c4ccc(Cl)cc4ncc3c2cc1OC`, the T/C (endpoint: median tumor weight change, dose: 31.0 mg/kg/injection, schedule: Q01DX001 (ip), vehicle: saline with Tween-80) is 47 % of control; the T/C (endpoint: median tumor weight change, dose: 62.0 mg/kg/injection, schedule: Q01DX001 (ip), vehicle: saline with Tween-80) is 109 % of control; the T/C under setting [2] is 118 % of control.

Regarding `CSc1ncc2ncn(C3OC(CO)C(O)C3O)c2n1` (stereo unspecified), the T/C reads like this: (endpoint: median tumor weight change, dose: 250.0 mg/kg/injection, schedule: Q01DX001 (ip), vehicle: Klucel (hydroxypropylcellulose) (HPC)) 92 % of control; (endpoint: median tumor weight change, dose: 500.0 mg/kg/injection, schedule: Q01DX001 (ip), vehicle: Klucel (hydroxypropylcellulose) (HPC)) 110 % of control; (endpoint: median tumor weight change, dose: 1000.0 mg/kg/injection, schedule: Q01DX001 (ip), vehicle: Klucel (hydroxypropylcellulose) (HPC)) 57 % of control.

With `OCC1OC(n2cnc3c2nnn2ccnc32)C(O)C1O` (stereo unspecified), the T/C (endpoint: mean tumor weight, dose: 37.5 mg/kg/injection, schedule: Q07DX005 (ip), vehicle: saline) was 93 % of control and 94 % of control; the T/C under setting [3] was 202 % of control and 91 % of control; the T/C under setting [4] is 103 % of control and 118 % of control.

Regarding `COc1cc2cc(c1Cl)N1CC(O)C(C)(O)C(=O)NC(C)C(=O)OC(CC1=O)C1(C)OC1C(C)C1CC(O)(NC(=O)O1)C(OC)/C=C\C=C(\C)C2OC` (stereo unspecified), the T/C (endpoint: median tumor weight change, dose: 8.0 micrograms/kg/injection, schedule: Q01DX001 (ip), vehicle: distilled water + alcohol) was 101 % of control; the T/C (endpoint: median tumor weight change, dose: 16.0 micrograms/kg/injection, schedule: Q01DX001 (ip), vehicle: distilled water + alcohol) is 111 % of control; the T/C (endpoint: median tumor weight change, dose: 64.0 micrograms/kg/injection, schedule: Q01DX001 (ip), vehicle: distilled water + alcohol) is 121 % of control.
